This note sets out measurements from patent US20250074891A1 (Anaxis Pharma Pty Ltd., priority 2021, published 2025).

Test [1] deals with U937 human histiocytic leukemia cell line. The test is described as follows: Cellular assay: inhibition of TSQ induced necroptosis (CellTitre-Glo). The following applies: Homo sapiens, U-937; U937 cells, TSQ cocktail, 48 hours, Table 38; read-out: Inhibition of TSQ-induced necroptosis (IC50 cell-based assay). The procedure: […] ASSAY: Screening compounds for inhibition of TSQ induced necroptosis, 384 well plate format.
Cell Line ID: U937 human histiocytic leukemia cell line.
Cell Concentration (cells/well): Final cell density is 20,000 cells per well.
Cell growth medium: HT-RPMI medium+7.4% Fetal Bovine Serum (FBS). Cells are cultured in Corning 150 cm^z tissue culture flasks with vented caps at 37° C./5% CO2.
Incubation: Plates were incubated at 37° C./5% CO2 in a humidified incubator for 48 hours following addition of compounds and death stimuli (TSQ cocktail).
Compound concentration: 36 μM starting concentration, 1:3 dilution, 10 point
DMSO final concentration (% v/v): 0.3%.
Compounds in TSQ cocktail (T: TNF; S: Smac mimetic; Q: Q-VD-OPh) and their final concentrations: • hTNF-Fc (100 ng/ml)—produced by standard procedures as shown in Bossen et al., J Biol Chem, 2006, 281(20), 13964-13971. • Compound A (500 nM)—Smac mimetic, Tetralogic and SYNthesis med chem • Q-VD-OPh (10 μM)—MP Biomedicals
The cellular assay was carried out according to the following steps: • 1. Each well was prepared by sequential addition of: • a. DMSO (control; columns 1-2 and 23-24) or compound in DMSO—addition was performed using acoustic transfer of nl volumes of stock compound to give final test concentrations of 36, 12, 4, 1.3, 0.44, 0.148, 0.049, 0.016, 0.005 and 0.002 μM. All wells were backfilled with DMSO to a final total volume in the well of 100 nl. • b. Following compound/DMSO addition in step (a), 40 μL of cell suspension (5×10^5 cells/mL) was added to provide a final cell concentration of 20,000 cells per well, and • c. Following cell addition in step (b), 10 μL of 5×TSQ cocktail (except to positive controls; […]) was added to each well. • 2. After 48 hours, plate was removed from the 37° C. incubator and equilibrated to room temperature for 45 minutes. • 3. 15 μL of room temperature CellTitre-Glo2™ (Promega™) was added to each well. • 4. Shook plates for 2 minutes (˜600 rpm) and incubated at room temperature for 15 minutes to allow signal to stabilise. • 5. Read luminescence readout on a plate reader.
Percent viability was calculated for each compound according to equation (2):
[formula] • wherein • RawData is the readout of any cell containing a compound of the invention • TA is the total activity provided by the luminescence readout from DMSO only wells (columns 2 and 24)=100% viability • NSA is the non-specific activity provided by DMSO+TSQ wells (columns 1 and 23)=0% viability
Curve fitting: 10-point titration curves are fitted with the 4-parameter logistic nonlinear regression model and the IC50 reported is the inflection point of the curve.
Analysis: Data was loaded into Dotmatics™ and visualised using the Tibco® Spotfire™ software. 10 points titration curves were fitted with the 4-parameter logistic nonlinear regression model and the IC50 reported reflect the inflection point of the curve for curve fitting.
Assay involving the TSQ cocktail (T: TNF; S: Smac mimetic; Q: Q-VD-OPh): TSQ treatment ensures that cells specifically undergo necroptotic cell death. TNF activates the TNF receptor, Smac mimetic directs the signal away from proinflammatory signaling and toward the RIP1/RIP3-mediated cell death pathways, and Q-VD-OPh ensures that the apoptotic response is blocked leaving only the programmed necrosis response. The compounds' activity (solution in DMSO) tested in this TSQ-induced assay was evaluated by determining the number of viable cells in culture by measuring the amount of ATP present as measured by CelltiterGlo.

Another test deals with U937 cells. The test is described as follows: Counter screen: cell viability without TSQ cocktail (off-target effect). Set-up: species or system human. Particulars: Homo sapiens, U-937, Table 38, read-out: Off-target effect (IC50 cell-based assay). The procedure: Counter screen: In parallel, all compounds were tested for their ability to affect cell viability. The same U937 cells were treated with compound in DMSO without the TSQ cocktail. This counter screen enabled evaluation of off-target effects. In this case, cell viability was measured by CelltiterGlo.
In general terms: A counterscreen serves to expose hits that act by an unwanted route or on another target.

A further test deals with MLKL (full length) (Homo sapiens (Human), UniProt Q8NB16). The test is described as follows: KINOMEscan binding assay, MLKL (full length). The following applies: Table 36. The procedure: Kinase assays. For most assays, kinase-tagged T7 phage strains were grown in parallel in 24-well blocks in an E. coli host derived from the BL21 strain. E. coli were grown to log-phase and infected with T7 phage from a frozen stock (multiplicity of infection=0.4) and incubated with shaking at 32° C. until lysis (90-150 minutes).
The Hill Slope was set to −1.

Some results are limits rather than exact numbers.

Sequence of MLKL (full length) (Q8NB16 whole entry): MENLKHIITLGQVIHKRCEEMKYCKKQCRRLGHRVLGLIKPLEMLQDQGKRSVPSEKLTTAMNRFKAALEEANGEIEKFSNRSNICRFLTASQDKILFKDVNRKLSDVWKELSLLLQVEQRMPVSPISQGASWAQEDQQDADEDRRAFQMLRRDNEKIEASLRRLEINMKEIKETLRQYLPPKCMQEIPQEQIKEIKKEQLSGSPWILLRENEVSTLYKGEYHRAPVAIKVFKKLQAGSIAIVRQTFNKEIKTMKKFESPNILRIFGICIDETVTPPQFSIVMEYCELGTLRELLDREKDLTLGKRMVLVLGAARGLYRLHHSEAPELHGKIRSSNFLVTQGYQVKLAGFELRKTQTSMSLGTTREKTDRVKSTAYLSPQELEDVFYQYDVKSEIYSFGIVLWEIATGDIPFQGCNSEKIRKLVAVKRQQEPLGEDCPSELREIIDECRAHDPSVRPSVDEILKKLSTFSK

The IC50 is the point on the concentration scale where inhibition reaches its midpoint. For `CCS(=O)(=O)Nc1ccc(-c2n[nH]c(Nc3ccnc(OCCOCCOCCNC(=O)COc4cccc5c4C(=O)N(C4CCC(=O)NC4=O)C5=O)c3)c2C(N)=O)cc1` (stereo not drawn) [Compound 1004, 5-((2-(2-(2-(2-(2-((2-(2,6-dioxopiperidin-3-yl)-1,3-dioxoisoindolin-4-yl)oxy)acetamido)ethoxy)ethoxy)ethoxy)pyridin-4-yl)amino)-3-(4-(ethylsulfonamido)phenyl)-1H-pyrazole-4-carboxamide], the IC50 (in test [1]; with U937 cells) was > 10 µM throughout.

Broadly, the Kd is the free concentration of one partner at which half of the binding sites on the other are occupied at equilibrium, for simple one-to-one binding. For `CCS(=O)(=O)Nc1ccc(-c2n[nH]c(Nc3ccnc(OCCOCCOCCOCCOCCOCC(=O)N[C@H](C(=O)N4C[C@H](O)C[C@H]4C(=O)NCc4ccc(-c5scnc5C)cc4)C(C)(C)C)c3)c2C(N)=O)cc1` [Compound 1008, 3-(4-ethanesulfonamidophenyl)-5-({2-[(1-{[(2S)-1-[(2S,4R)-4-hydroxy-2-({[4-(4-methyl-1,3-thiazol-5-yl)phenyl]methyl}carbamoyl)pyrrolidin-1-yl]-3,3-dimethyl-1-oxobutan-2-yl]carbamoyl}-2,5,8,11,14-pentaoxahexadecan-16-yl)oxy]pyridin-4-yl}amino)-1H-pyrazole-4-carboxamide], the Kd at MLKL (full length) is < 0.01 µM. Moreover, the IC50 (in test [1]; in the test with U937 cells) was > 10 µM throughout.

`CCS(=O)(=O)Nc1ccc(-c2n[nH]c(Nc3ccnc(OCCOCCOCCOCCOCCOCCOCC(=O)N[C@H](C(=O)N4C[C@H](O)C[C@H]4C(=O)NCc4ccc(-c5scnc5C)cc4)C(C)(C)C)c3)c2C(N)=O)cc1` [Compound 1009, 3-(4-ethanesulfonamidophenyl)-5-({2-[(1-{[(2S)-1-[(2S,4R)-4-hydroxy-2-({[4-(4-methyl-1,3-thiazol-5-yl)phenyl]methyl}carbamoyl)pyrrolidin-1-yl]-3,3-dimethyl-1-oxobutan-2-yl]carbamoyl}-2,5,8,11,14,17-hexaoxanonadecan-19-yl)oxy]pyridin-4-yl}amino)-1H-pyrazole-4-carboxamide]: the Kd on MLKL (full length) is < 0.01 µM. Moreover, the IC50 (in test [1]; in the test on U937 cells) was > 10 µM throughout.

On MLKL (full length), `CCS(=O)(=O)Nc1ccc(-c2n[nH]c(Nc3ccnc(OCCOCC(=O)N[C@H](C(=O)N4C[C@H](O)C[C@H]4C(=O)NCc4ccc(-c5scnc5C)cc4)C(C)(C)C)c3)c2C(N)=O)cc1` [Compound 1010, 3-(4-ethanesulfonamidophenyl)-5-({2-[2-({[(2S)-1-[(2S,4R)-4-hydroxy-2-({[4-(4-methyl-1,3-thiazol-5-yl)phenyl]methyl}carbamoyl)pyrrolidin-1-yl]-3,3-dimethyl-1-oxobutan-2-yl]carbamoyl}methoxy)ethoxy]pyridin-4-yl}amino)-1H-pyrazole-4-carboxamide] had a Kd of 0.01 to 1 µM. For the same compound, the IC50 (in test [1]; in the test on U937 cells) was > 10 µM throughout.

As for `Cc1ncsc1-c1ccc(CNC(=O)[C@@H]2C[C@@H](O)CN2C(=O)[C@@H](NC(=O)COCCOc2cc(Nc3[nH]nc(-c4ccc(NS(=O)(=O)CC(F)(F)F)cc4)c3C(N)=O)ccn2)C(C)(C)C)cc1` [Compound 1011, 5-({2-[2-({[(2S)-1-[(2S,4R)-4-hydroxy-2-({[4-(4-methyl-1,3-thiazol-5-yl)phenyl]methyl}carbamoyl)pyrrolidin-1-yl]-3,3-dimethyl-1-oxobutan-2-yl]carbamoyl}methoxy)ethoxy]pyridin-4-yl}amino)-3-[4-(2,2,2-trifluoroethanesulfonamido)phenyl]-1H-pyrazole-4-carboxamide], the Kd at MLKL (full length) is < 0.01 µM. Further, the IC50 (in test [1]; in the test on U937 cells) was > 10 µM in each case.

As for `Cc1ncsc1-c1ccc(CNC(=O)[C@@H]2C[C@@H](O)CN2C(=O)[C@@H](NC(=O)COCCOc2cc(Nc3[nH]nc(-c4ccc(NS(=O)(=O)C(F)F)cc4)c3C(N)=O)ccn2)C(C)(C)C)cc1` [Compound 1012, 3-[4-(difluoromethanesulfonamido)phenyl]-5-({2-[2-({[(2S)-1-[(2S,4R)-4-hydroxy-2-({[4-(4-methyl-1,3-thiazol-5-yl)phenyl]methyl}carbamoyl)pyrrolidin-1-yl]-3,3-dimethyl-1-oxobutan-2-yl]carbamoyl}methoxy)ethoxy]pyridin-4-yl}amino)-1H-pyrazole-4-carboxamide], at MLKL (full length), the Kd was < 0.01 µM. The IC50 (in test [1]; in the test on U937 cells) was > 10 µM in each case.

As for `CCS(=O)(=O)Nc1ccc(-c2n[nH]c(Nc3ccnc(OCCCCC(=O)N[C@H](C(=O)N4C[C@@H](O)C[C@H]4C(=O)NCc4ccc(-c5scnc5C)cc4)C(C)(C)C)c3)c2C(N)=O)cc1` [Compound 1014, 3-(4-ethanesulfonamidophenyl)-5-{[2-(4-{[(2S)-1-[(2S,4S)-4-hydroxy-2-({[4-(4-methyl-1,3-thiazol-5-yl)phenyl]methyl}carbamoyl)pyrrolidin-1-yl]-3,3-dimethyl-1-oxobutan-2-yl]carbamoyl}butoxy)pyridin-4-yl]amino}-1H-pyrazole-4-carboxamide], the Kd on MLKL (full length) was < 0.01 µM. The IC50 (in test [1]; in the test on U937 cells) was > 10 µM in each case.

For the compound `Cc1ncsc1-c1ccc(CNC(=O)[C@@H]2C[C@@H](O)CN2C(=O)[C@@H](NC(=O)CCCCOc2cc(Nc3[nH]nc(-c4ccc(NS(=O)(=O)C(F)F)cc4)c3C(N)=O)ccn2)C(C)(C)C)cc1` [Compound 1017, 3-[4-(difluoromethanesulfonamido)phenyl]-5-{[2-(4-{[(2S)-1-[(2S,4R)-4-hydroxy-2-({[4-(4-methyl-1,3-thiazol-5-yl)phenyl]methyl}carbamoyl)pyrrolidin-1-yl]-3,3-dimethyl-1-oxobutan-2-yl]carbamoyl}butoxy)pyridin-4-yl]amino}-1H-pyrazole-4-carboxamide], the Kd at MLKL (full length) is < 0.01 µM. Moreover, the figures for the IC50 (in test [1]; in the test on U937 cells) were 1 to 10 µM and > 10 µM, respectively.

For the compound `Cc1ncsc1-c1ccc(CNC(=O)[C@@H]2C[C@@H](O)CN2C(=O)[C@@H](NC(=O)c2cccc(COc3ccc(Nc4[nH]nc(-c5ccc(NS(=O)(=O)C(F)F)c(O[C@@H](C)c6ccc(F)cc6)c5)c4C(N)=O)nc3)c2)C(C)(C)C)cc1` [Compound 1031, 3-(4-(difluoromethylsulfonamido)-3-((S)-1-(4-fluorophenyl)ethoxy)phenyl)-5-((5-((3-(((S)-1-((2S,4R)-4-hydroxy-2-((4-(4-methylthiazol-5-yl)benzyl)carbamoyl)pyrrolidin-1-yl)-3,3-dimethyl-1-oxobutan-2-yl)carbamoyl)benzyl)oxy)pyridin-2-yl)amino)-1H-pyrazole-4-carboxamide], the IC50 in test [1] was < 1 µM; with U937 cells, 1 to 10 µM.

Turning to `Cc1ncsc1-c1ccc(CNC(=O)[C@@H]2C[C@@H](O)CN2C(=O)[C@@H](NC(=O)CCCCCCOc2ccc(Nc3[nH]nc(-c4ccc(NS(=O)(=O)C(F)F)c(O[C@@H](C)c5ccc(F)cc5)c4)c3C(N)=O)nc2)C(C)(C)C)cc1` [Compound 1059, 3-[4-(difluoromethanesulfonamido)-3-[(1S)-1-(4-fluorophenyl)ethoxy]phenyl]-5-({5-[(6-{[(2S)-1-[(2S,4R)-4-hydroxy-2-({[4-(4-methyl-1,3-thiazol-5-yl)phenyl]methyl}carbamoyl)pyrrolidin-1-yl]-3,3-dimethyl-1-oxobutan-2-yl]carbamoyl}hexyl)oxy]pyridin-2-yl}amino)-1H-pyrazole-4-carboxamide], the IC50 was < 1 µM in test [1] and 1 to 10 µM in the test on U937 cells.
